From PubChem BioAssay (NCI)
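Step 1: Grow cells in 96-well plates. Step 2: Expose to compound for 48 hours at 5 concentrations. Step 3: Interpolate endpoints linearly; if unreached, use highest concentration. TGI marks complete inhibition of growth.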

Experiments:
Test in all cases: growth of human tumour cells (NCI), 48 h
786-0 renal = test system: 786-0 renal
COLO 205 colon = test system: COLO 205 colon
DU-145 prostate = test system: DU-145 prostate
HOP-92 NSCLC = test system: HOP-92 NSCLC
HT29 colon = test system: HT29 colon
K-562 leukemia = test system: K-562 leukemia
MDA-MB-231 breast = test system: MDA-MB-231 breast
NCI-H226 lung = test system: NCI-H226 lung
NCI-H460 lung = test system: NCI-H460 lung
OVCAR-5 ovarian = test system: OVCAR-5 ovarian

SMILES | TGI (786-0 renal) [µM] | TGI (COLO 205 colon) [µM] | TGI (DU-145 prostate) [µM] | TGI (HOP-92 NSCLC) [µM] | TGI (HT29 colon) [µM] | TGI (K-562 leukemia) [µM] | TGI (MDA-MB-231 breast) [µM] | TGI (NCI-H226 lung) [µM] | TGI (NCI-H460 lung) [µM] | TGI (OVCAR-5 ovarian) [µM]
COCN1CCN=c2c1c1c3c(c4ccccc4n23)CCC1 | > 100 | > 100 | > 100 | > 100 | > 100 | > 100 | > 100 | > 100 | > 100 | > 100
C=CC(C)(C)N[C@@H](C(=O)N1CCC[C@H]1c1nc(-c2nc(C(=O)OCC=C(C)C)c(C)o2)c(C)o1)C(C)C | 44.5 | 52.1 | 34 | 35 | 46.1 | > 100 | 51.3 | 35.6 | 51.1 | > 100
CC1(C)CN(c2ccccc2)C(=O)C1OC(=O)[C@@]1(C)C[C@@H]2C=C[C@H]1C2 (stereo not given in full) | 39.2 | 34 | > 100 | 60.6 | 28.8 | > 100 | 79.3 | 53.6 | 55 | 56.6
C=C1C(=O)O[C@H]2C/C(C)=C/CC/C(C)=C/CC[C@@](C)(O)[C@@H](I)C[C@@H]12 | 10.6 | 24.9 | 22.2 | 9.82 | 26.8 | 13.5 | 26.9 | 12.2 | 27.2 | 30.2
COc1ccc2c(c1)nc1n2C(N)=Nc2ccccc2S1 | > 34.1 | > 100 | > 100 | 63.5 | > 100 | > 57.8 | > 100 | > 100 | > 100 | > 100
Cc1ccc(NC(=S)Nc2c(C)n(C)n(-c3ccccc3)c2=O)cc1 | > 100 | > 100 | > 100 | > 100 | > 100 | > 100 | > 100 | > 100 | > 100 | > 100
CC(NC(=O)OCc1ccccc1)NC(=O)C(CC(=O)OC(C)(C)C)NC(=O)OC(C)(C)C (stereo not given) | > 100 | > 100 | > 100 | > 100 | > 100 | > 100 | > 100 | > 100 | > 100 | > 100
O=c1c2ccccc2n2nnc3ccc(NCCCNCCNCCCNc4ccc5nnn6c7ccccc7c(=O)c4c56)c1c32 | 21.3 | > 50 | > 50 | > 50 | 1.52 | > 50 | 7.37 | 0.99 | 15.8 | 18.1
O=C(OCCN1CCCCC1)C(c1ccccc1)C1(O)CCSCC1 (stereo not given) | > 100 | > 100 | > 100 | > 100 | > 100 | > 100 | > 100 | > 100 | > 100 | > 100
CN1C/C(=C\c2ccc(Cl)cc2)C(=O)/C(=C/c2ccc(Cl)cc2)C1 | 1.26 | 5.62 | > 100 | > 100 | 0.824 | > 100 | 8.08 | 8.7 | 4.59 | > 100
CCOC(=O)CCc1c(C(=O)OCC)[nH]c(/C=C2\NC(=O)C(C)=C2CC)c1C | 27.5 | > 100 | 55.6 | 45.1 | > 100 | > 100 | 52.6 | > 100 | > 100 | 86.3
Cc1cn(CC2=NCCCN2)c(=O)[nH]c1=O | > 100 | > 100 | > 100 | > 100 | > 100 | > 100 | > 100 | > 100 | > 100 | > 100
COc1ccc(/C=C2\CC3C4CC=C5C[C@@H](O)CC[C@]5(C)C4CC[C@]3(C)\C2=N\O)cc1OC (stereo not given in full) | > 100 | 67.1 | > 100 | > 100 | > 100 | > 100 | > 100 | > 100 | > 100 | > 100
N#Cc1c(N2CCCC2)ncn(Cc2ccccc2)c1=S | > 100 | > 100 | > 100 | 99.3 | > 100 | > 100 | > 100 | > 100 | > 100 | > 100
C=CCN(c1cc(OCc2ccccc2)c(NC(C)=O)cc1[N+](=O)[O-])S(C)(=O)=O | 49.2 | > 100 | > 100 | 41.2 | > 100 | > 100 | 29.5 | 25.2 | > 100 | > 100
N/N=C1/C(=N/O)CCc2nonc21 | > 100 | > 100 | > 100 | > 100 | > 100 | > 100 | > 100 | > 100 | > 100 | > 100
